In US20240082463A1, “COATED MEDICAL PRODUCT” (HEMOTEQ AG, priority 2020, published 2024):
Like-named read-outs stand apart in the source and are kept apart here. Values belong to the compound of their own block, whether it stands above or below them.

Key:
[1] = cited from earlier work
[2] = Crystal suspensions of microcrystalline paclitaxel in different solvent mixtures; format: physicochemical; set-up: key: +++: good; +/−: average; −−−: poor; settings: with trioctanoylglycerol
Method: To prepare the solutions, 770 mg of trioctanoylglycerol was dissolved in the polar solvent. Then the nonpolar solvent was added. It was then homogenized and filtered.
To test whether crystal suspension could be prepared, 10 mL of each of the solutions was carefully added to 200 mg of paclitaxelin the form of microcrystals at room temperature. After combining, it was tested whether stable crystal suspensions were obtained.

[3] = Preparation and stability of crystal suspensions of microcrystalline paclitaxel with solutions of different tri-O-acylglycerols; settings: for microcrystals intact in SEM images: SEM 200× and 1000×; for microcrystals of paclitaxel dissolve directly in the solution: directly after combining, room temperature; for paclitaxel microcrystals on temperature increase: temperature increased (50° C.); for stability of crystal suspension: after 24-48 hours and temperature elevation to 50° C.
Text: In the first step, solutions of tri-O-acylglycerols were first prepared in a solvent mixture. Subsequently, the solutions were combined with microcrystals of paclitaxel to investigate which tri-O-acylglycerols could be used to obtain stable crystal suspensions. […] For the preparation of the solutions, an ethyl acetate/heptane solvent mixture was used here as an example.
To prepare the solutions, the respective tri-O-acylglycerol was first dissolved in a polar organic solvent and then a non-polar solvent was added.
To prepare the solutions, 770 mg of the respective tri-O-acylglycerol were dissolved in 14 g ethyl acetate (15.6 mL). Then, 57.4 g of n-heptane (84.4 mL) was added.
Subsequently, homogenization and filtration were performed. The total volume of the solvent mixture is 100 mL.
To a precisely weighed amount of dry microcrystals of the previously prepared paclitaxel, a defined amount of the solutions containing tri-O-acylglycerol and optionally antioxidant is carefully added.
To check whether crystal suspension can be prepared, to each 200 mg of paclitaxel in the form of microcrystals were carefully added 10 mL of one of the solutions 1a) to 1j) at room temperature. Six mixtures of 10 mL of solution for each solution were prepared. After combining, it was tested whether the microcrystals of paclitaxel dissolved directly in the solutions.
To evaluate the crystal size, particle size distribution (i.e., crystal size distribution), and shape of the crystals, a sample was taken with a Pasteur pipette in each case and a drop was placed on the slide of the SEM sample plate. SEM images were taken at 200× and 1000× magnification for evaluation.
To evaluate the crystal size, particle size distribution (i.e., crystal size distribution), and shape of the crystals, one sample was taken from each using a Pasteur pipette and one drop was placed on the foil of the SEM sample plate. An additional sample was taken from the sediment and one drop was placed on the slide of the SEM sample plate. SEM images were taken at 200× and 1000× magnification for evaluation. SEM images were taken at 200 and 1000× magnification for evaluation.
To prepare the solutions, 770 mg of the respective tri-O-acylglycerol were dissolved in 14 g ethyl acetate (15.6 mL). Then, 57.4 g of n-heptane (84.4 mL) was added. Subsequently, homogenization and filtration were performed. The total volume of the solvent mixture is 100 mL.
Three mixtures of 10 mL of solution for each solution were prepared. After combining, it was tested whether the microcrystals dissolved directly in these solutions.

[4] = cited from earlier work; remark: listed apart in the source

SMILES: C1COCCO1 [1,4-Dioxane]
- logKOW ([1]; Table 6, rounded values): −0.4
- logKOW ([1]; Table 7): −0.42
- log KOW [1]: about −0.4

SMILES: CCCCc1ccccc1 [1-Phenylbutane]
- logKOW ([1]; Table 4): 3.4

SMILES: CC(C)CC(C)(C)C [2,2,4-Trimethylpentane]
- logKOW ([1]; Table 2, rounded values): 4.1

SMILES: CCC(C)(C)C [2,2-Dimethylbutane]
- logKOW ([1]; Table 2, rounded values): 3.8

SMILES: CCCC(C)(C)C [2,2-Dimethylpentane]
- logKOW ([1]; Table 2, rounded values): 3.8

SMILES: CCC(C)C(C)C (stereo not drawn) [2,3-Dimethylpentane]
- logKOW ([1]; Table 2, rounded values): 3.8

SMILES: CC(C)Cc1ccccc1 [2-Methyl-1-phenylpropane]
- logKOW ([1]; Table 4): 3.4

SMILES: CCCCC(C)C [2-Methylhexane]
- logKOW ([1]; Table 2, rounded values): 3.7

SMILES: CCCC(C)C [2-Methylpentane]
- logKOW ([1]; Table 2, rounded values): 3.6

SMILES: CCC(C)c1ccccc1 (stereo not drawn) [2-Phenylbutane]
- logKOW ([1]; Table 4): 3.4

SMILES: CC(C)=O [Acetone]
- logKOW ([1]; Table 6, rounded values): −0.2
- logKOW ([1]; Table 7): −0.24

SMILES: CC#N [Acetonitrile]
- logKOW ([1]; Table 6, rounded values): −0.3
- logKOW ([1]; Table 7): −0.34

SMILES: COc1ccccc1 [Anisol]
- logKOW ([1]; Table 4): 2.1

SMILES: ClC(Cl)(Cl)Cl [Carbon tetrachloride]
- logKOW ([1]; Table 3, rounded orientation values): approx. 2.8
- logKOW ([1]; Table 4): 2.8

SMILES: Clc1ccccc1 [Chlorobenzene]
- logKOW ([1]; Table 4): 2.9
- log KOW [1]: about 2.9

SMILES: CC(C)c1ccccc1 [Cumol]
- logKOW ([1]; Table 4): 3.4

SMILES: C1CCCCCCCCC1 [Cyclodecane]
- logKOW ([1]; Table 2, rounded values): 5.5

SMILES: C1CCCCCC1 [Cycloheptane]
- logKOW ([1]; Table 2, rounded values): 4

SMILES: C1CCCCCCCC1 [Cyclononan]
- logKOW ([1]; Table 2, rounded values): 5.1

SMILES: C1CCCC1 [Cyclopentane]
- logKOW ([1]; Table 2, rounded values): 3.0
- logKOW ([1]; Table 8): 3.00

SMILES: CCCCCCCCCC [Decan]
- logKOW ([1]; Table 2, rounded values): 6.3

SMILES: ClCCl [Dichloromethane]
- logKOW ([1]; Table 6, rounded values): +1.3
- logKOW ([1]; Table 7): 1.25

SMILES: CCOCC [Diethyl ether]
- logKOW ([1]; Table 6, rounded values): +0.9
- logKOW ([1]; Table 7): 0.89

SMILES: CCCOCCC [Dipropyl ether]
- logKOW ([1]; Table 6, rounded values): +2.0

SMILES: CCOc1ccccc1 [Ethoxybenzene]
- logKOW ([1]; Table 4): 2.5

SMILES: CCOC(C)=O [Ethyl acetate]
- logKOW ([1]; Table 6, rounded values): +0.7
- logKOW ([1]; Table 7): 0.73

SMILES: CCc1ccccc1 [Ethylbenzene]
- logKOW ([1]; Table 4): 3.2

SMILES: OCC(O)CO [Glycerin]
- logKOW ([1]; Table 6, rounded values): −1.8

SMILES: CCCCCCC [Heptane]
- logKOW ([1]; Table 2, rounded values): 4.5
- logKOW ([1]; Table 8): 4.50

SMILES: CCC(C)C [Isopentane]
- logKOW ([1]; Table 2, rounded values): 3.2

SMILES: CO [Methanol]
- logKOW ([1]; Table 6, rounded values): −0.7
- logKOW ([1]; Table 7): −0.74

SMILES: COC(C)=O [Methyl acetate]
- logKOW ([1]; Table 6, rounded values): +0.2

SMILES: CC1CCCCC1 [Methylcyclohexane]
- logKOW ([1]; Table 2, rounded values): 3.9

SMILES: CC1CCCC1 [Methylcyclopentane]
- logKOW ([1]; Table 2, rounded values): 3.4

SMILES: CN1CCCC1=O [N-methylpyrrolidone]
- logKOW ([1]; Table 6, rounded values): −0.5

SMILES: CCCCCCCCC [Nonan]
- logKOW ([1]; Table 2, rounded values): 5.7

SMILES: CCCCCCCC [Octane]
- logKOW ([1]; Table 2, rounded values): 5.2

SMILES: CCC(=O)O [Propionic acid]
- logKOW ([1]; Table 7): 0.32

SMILES: CCC(C)=O [Solution 2-Butanone, 2-Butanone]
- logKOW ([1]; Table 7): 0.29

SMILES: CCCC(C)=O [Solution 2-Pentanone, 2-Pentanone]
- logKOW ([1]; Table 6, rounded values): +0.9
- logKOW ([1]; Table 7): 0.84

SMILES: FC(F)(F)C(F)(F)C(F)(F)C(F)(F)C(F)(F)C(F)(F)F [Tetradecafluorohexane]
- logKOW ([1]; Table 4): 5.8

SMILES: C1CCOC1 [Tetrahydrofuran (THF), Tetrahydrofuran]
- logKOW ([1]; Table 6, rounded values): +0.5
- logKOW ([1]; Table 7): 0.46

SMILES: O [Water]
- logKOW ([1]; Table 5, rounded orientation values): approx. −1.4

SMILES: CC(C)Cc1ccccc1 [iso-butylbenzene]
- logKOW ([1]; Table 4): 4.1

SMILES: Cc1cccc(C)c1 [m-Xylene]
- logKOW ([1]; Table 4): 3.2
- logKOW ([1]; Table 8): 3.20

SMILES: CCCOC(C)=O [n-Propyl acetate]
- logKOW ([1]; Table 6, rounded values): +1.4

SMILES: Clc1ccccc1Cl [o-Dichlorobenzene]
- logKOW ([1]; Table 4): 3.4

SMILES: Cc1ccccc1C [o-Xylene]
- logKOW ([1]; Table 4): 3.1
- logKOW ([1]; Table 8): 3.12

SMILES: Cc1ccc(C)cc1 [p-Xylene]
- logKOW ([1]; Table 4): 3.2
- logKOW ([1]; Table 8): 3.15

- Crystal suspension ([2]; Acetone/Cyclohexane 10:90 (v/v polar/non-polar)): +++
- Crystal suspension ([2]; Acetone/Cyclohexane 50:50 (v/v polar/non-polar)): −−−
- Crystal suspension ([2]; Acetone/Cyclohexane 60:40 (v/v polar/non-polar)): −−−
- Crystal suspension ([2]; Acetone/Heptane 10:90 (v/v polar/non-polar)): +++
- Crystal suspension ([2]; Acetone/Heptane 60:40 (v/v polar/non-polar)): −−−
- Crystal suspension ([2]; Acetone/Hexane 10:90 (v/v polar/non-polar)): +++
- Crystal suspension ([2]; Acetone/Hexane 50:50 (v/v polar/non-polar)): −−−
- Crystal suspension ([2]; Acetone/Hexane 60:40 (v/v polar/non-polar)): −−−
- Crystal suspension ([2]; Ethanol/Cyclohexane 10:90 (v/v polar/non-polar)): +++
- Crystal suspension ([2]; Ethanol/Cyclohexane 60:40 (v/v polar/non-polar)): −−−
- Crystal suspension ([2]; Ethanol/Heptane 10:90 (v/v polar/non-polar)): +++
- Crystal suspension ([2]; Ethanol/Heptane 60:40 (v/v polar/non-polar)): −−−
- Crystal suspension ([2]; Ethanol/Hexane 10:90 (v/v polar/non-polar)): +++
- Crystal suspension ([2]; Ethanol/Hexane 60:40 (v/v polar/non-polar)): −−−
- Crystal suspension ([2]; Ethyl acetate/Cyclohexane 10:90 (v/v polar/non-polar)): +++
- Crystal suspension ([2]; Ethyl acetate/Cyclohexane 30:70 (v/v polar/non-polar)): +++
- Crystal suspension ([2]; Ethyl acetate/Cyclohexane 40:60 (v/v polar/non-polar)): +++
- Crystal suspension ([2]; Ethyl acetate/Cyclohexane 60:40 (v/v polar/non-polar)): +/−
- Crystal suspension ([2]; Ethyl acetate/Heptane 10:90 (v/v polar/non-polar)): +++
- Crystal suspension ([2]; Ethyl acetate/Heptane 30:70 (v/v polar/non-polar)): +++
- Crystal suspension ([2]; Ethyl acetate/Heptane 40:60 (v/v polar/non-polar)): +++
- Crystal suspension ([2]; Ethyl acetate/Heptane 60:40 (v/v polar/non-polar)): +/−
- Crystal suspension ([2]; Ethyl acetate/Hexane 10:90 (v/v polar/non-polar)): +++
- Crystal suspension ([2]; Ethyl acetate/Hexane 30:70 (v/v polar/non-polar)): +++
- Crystal suspension ([2]; Ethyl acetate/Hexane 40:60 (v/v polar/non-polar)): +++
- Crystal suspension ([2]; Ethyl acetate/Hexane 60:40 (v/v polar/non-polar)): +/−
- Crystal suspension ([2]; iso-propanol/Cyclohexane 10:90 (v/v polar/non-polar)): +++
- Crystal suspension ([2]; iso-propanol/Cyclohexane 50:50 (v/v polar/non-polar)): −−−
- Crystal suspension ([2]; iso-propanol/Cyclohexane 60:40 (v/v polar/non-polar)): −−−
- Crystal suspension ([2]; iso-propanol/Heptane 10:90 (v/v polar/non-polar)): +++
- Crystal suspension ([2]; iso-propanol/Heptane 50:50 (v/v polar/non-polar)): −−−
- Crystal suspension ([2]; iso-propanol/Heptane 60:40 (v/v polar/non-polar)): −−−
- Crystal suspension ([2]; iso-propanol/Hexane 10:90 (v/v polar/non-polar)): +++
- Crystal suspension ([2]; iso-propanol/Hexane 50:50 (v/v polar/non-polar)): −−−
- Crystal suspension ([2]; iso-propanol/Hexane 60:40 (v/v polar/non-polar)): −−−
SMILES: CC(=O)O[C@H]1C(=O)[C@@]2(C)[C@H]([C@H](OC(=O)c3ccccc3)[C@]3(O)C[C@H](OC(=O)[C@H](O)[C@@H](NC(=O)c4ccccc4)c4ccccc4)C(C)=C1C3(C)C)[C@]1(OC(C)=O)CO[C@@H]1C[C@@H]2O [paclitaxel, (2α,4α,5β,7β,10β,13α)-4,10-Bis(acetyloxy)-13-{[(2R,3S)-3-(benzoylamino)-2-hydroxy-3-phenylpropanoyl]oxy}-1,7-dihydroxy-9-oxo-5,20-epoxytax-11-en-2-yl-benzoat]

SMILES: CC(C)(C)C1CCCCC1 [tert-butylcyclohexane]
- logKOW ([1]; Table 2, rounded values): 4.0

- sedimentation of the microcrystals [3]: sedimentation of the crystals occurred
- state of paclitaxel microcrystals in the suspension after 100 h [3]: did not dissolve completely
- microcrystals intact in SEM images [3]: did not remain intact
- microcrystals of paclitaxel dissolve directly in the solution [3]: did not dissolve directly
SMILES: CCCCCCCCCCCC(=O)OCC(COC(=O)CCCCCCCCCCC)OC(=O)CCCCCCCCCCC [tridodecanoylglycerol]

- state of paclitaxel microcrystals in the suspension after 100 h [3]: partially dissolved
- microcrystals intact in SEM images [3]: did not remain intact
- microcrystals of paclitaxel dissolve directly in the solution [3]: did not dissolve directly
- paclitaxel microcrystals on temperature increase [3]: dissolved
SMILES: CCCCCCC(=O)OCC(COC(=O)CCCCCC)OC(=O)CCCCCC [triheptanoylglycerol]

- state of paclitaxel microcrystals in the suspension after 100 h [3]: not as uniformly present
- microcrystals of paclitaxel dissolve directly in the solution [3]: did not dissolve directly
- paclitaxel microcrystals on temperature increase [3]: dissolved rapidly
SMILES: CCCCCC(=O)OCC(COC(=O)CCCCC)OC(=O)CCCCC [trihexanoylglycerol]

- stability of crystal suspension [3]: remained stable
SMILES: CCCCCCCCC(=O)OCC(COC(=O)CCCCCCCC)OC(=O)CCCCCCCC [trinonanoylglycerol]
- solubility in water [4]: practically insoluble

- sedimentation of the microcrystals [3]: sedimentation of the crystals occurred
- state of paclitaxel microcrystals in the suspension after 100 h [3]: did not dissolve completely
- microcrystals intact in SEM images [3]: did not remain intact
- microcrystals of paclitaxel dissolve directly in the solution [3]: did not dissolve directly
SMILES: CCCCCCCCCCCCCC(=O)OCC(COC(=O)CCCCCCCCCCCCC)OC(=O)CCCCCCCCCCCCC [tritetradecanoylglycerol]

- sedimentation of the microcrystals [3]: no sedimentation
- microcrystals intact in SEM images [3]: remained intact
- stability of crystal suspension [3]: remained stable
SMILES: CCCCCCCCCCC(=O)OCC(COC(=O)CCCCCCCCCC)OC(=O)CCCCCCCCCC [triundecanoylglycerol, 1,3-bis(undecanoyloxy)propan-2-yl-undecanoate]
- solubility in water [4]: practically insoluble
